Results taken from patent US20160016989A1, “Synthetic Polymers Containing Amino Acid Side Chains” (CHIMEROCHEM LLC, priority 2013, published 2016).

What was measured:
[1] = test system: Histidine specific antibody (polyclonal IgG ab6442 from ABCAM); assay: Native polyacrylamide gel shift with Histidine specific antibody; assay type: binding; settings: native 12% polyacrylamide gel; compared to 20-mer polydT controls
Method: Example using monomer to produce a H-tag. Six His side chain monomers (H) as described in example 1 c2 are added during oligonucleotide synthesis to the 5′ position of a 20mer polydT, such that the final sequence is 5′HHH HHH TTT TTT TTT TTT TTT TTT TT3′. H is used at a concentration of 0.1M in acetonitrile for synthesis. The chimeric polymer is synthesized according to manufacturer's recommendations for the ABI Expedite synthesizer. After deprotection the H-tagged polydT was incubated with Histidine specific antibody (polyclonal IgG ab6442 from ABCAM). A control sample of 20-mer polydT was also incubated with the Histidine specific antibody. A native 12% polyacrylamide (20:1 acrylamide:bis) was loaded with 4 samples: 20-mer polydT, 20-mer polydT+Histidine specific antibody, His-tagged 20-mer polydT, His-tagged 20-mer polydT+Histidine specific antibody.

[2] = test system: VMCs from the left anterior descending, circumflex, and right coronary arteries; assay: Calcium signal (fluo 3 fluorescence) and contractility of single coronary artery VMCs; assay type: cell-based, rhesus monkeys; settings: images at 1 minute and subsequent time points
Source text: Single VMCs from the left anterior descending, circumflex, and right coronary arteries of adult rhesus monkeys are isolated and studied both as freshly dispersed and as primary cultures. The short-term primary cultured cells (never passaged) maintain the characteristics of the source tissue for 2 to 3 weeks, including contraction, relaxation, receptors, and membrane electrical properties. VMCs are dissociated with collagenase and protease enzymes in a potassium glutamate solution (KG) that prevents loading with Na^+, Ca2^+, or Cl^− and results in a high proportion of viable, contracting cells (Miyagawa et al, Am J Physiol 272:H2645-2654, 1997; Hermsmeyer et, Art Thromb Vasc Biol, 24:955-961, 2004). […]
Freshly dispersed or primary cultured VMCs on glass coverslips are placed in a chamber of laminar flow design on an Axiovert inverted fluorescence microscope and observed with a Zeiss Plan Neofluar 25X/0.80 water immersion objective. Fluorescence intensity is measured with high sensitivity calibrated video sensor and recorded digitally via computer acquisition and management program. […] Fluorescent images are taken at 1 minute and subsequent time points from which light intensity is equated to changes in calcium signal (fluorescence) and cell contractility.

| Molecule | gel shift on addition of the Histidine specific antibody [1] | calcium signal (fluorescence) ([2]; individual VMC loaded with 3 μM fluo 3) | cell contractility ([2]; individual VMC) |
| --- | --- | --- | --- |
| 5′HHH HHH TTT TTT TTT TTT TTT TTT TT3′ [His-tagged 20-mer polydT] | gel shift | – | – |
| NC(=O)CC[C@@H]1NC(=O)[C@H](Cc2ccccc2)NC(=O)[C@H](Cc2ccc(O)cc2)NC(=O)[C@@H](N)CSSC[C@@H](C(=O)N2CCC[C@H]2C(=O)N[C@@H](CCCN=C(N)N)C(=O)NCC(N)=O)NC(=O)[C@H](CC(N)=O)NC1=O [arginine vasopressin] | – | affect | affect |
